Experiments:
[1] = target: human sodium channel Nav 1.8 (Homo sapiens (Human), UniProt Q9Y5Y9); test: Automated whole-cell voltage-clamp (ScreenPatch 384P), Nav 1.8 sodium current, Protocol 2; type: cell-based; conditions: read-out: Nav1.8 IC50
Protocol: (§1) Biological assays were performed on Chinese hamster ovary (CHO) cells expressing the human sodium channels Nav 1.8 and Nav 1.7 stably.
(§2) The experimental voltage-clamp protocol using the whole cell configuration was established on the automated ScreenPatch® 384P platform (SP384PE, Nanion Technologies, Livingston, NJ) and recording of the results was performed with a Nanion 384-well Patch Clamp chip (NPC) (Nanion Technologies, Livingston, NJ).
(§3) Compounds of Formula (I), were diluted in eight concentrations in the extracellular solution composed of physiological saline, buffered with HEPES (mM): NaCl, 137; KCl, 4; CaCl2, 3.8; MgCl2, 1; HEPES, 10; Glucose, 10; pH 7.4. The […], 50; CsF, 90; MgCl2, 5; EGTA, 5; HEPES, 10; pH 7.2. The duration of exposure of each compound with the cells expressing Nav 1.7 or Nav 1.8 was at least five minutes and the assays were performed at room temperature.
(§4) The measurements of the sodium currents of Nav 1.8 and Nav 1.7 were obtained using the voltage protocols described below: • Protocol 1: A holding voltage of-90 mV was established followed by a voltage phase of 200 ms to-120 mV, followed by a voltage step of 10 mV for 1 second for Nav 1.8 or 0 mV for Nav 1.7, followed by a step of-100 mV for 20 ms, followed by a step of 20 ms for 10 mV for Nav 1.8 or 0 mV for Nav 1.7 (TP1A) before returning to the holding voltage of-90 mV. • Protocol 2: A holding voltage of-100 mV was established followed by an inactivation voltage step at −40 mV for 8 seconds, followed by a −100 mV step for 20 ms, followed by a 20 ms step for 10 mV for Nav 1.8 or 0 mV for Nav 1.7 (TP1A) before returning to the holding voltage of-100 mV.
(§5) Protocols were repeated at a frequency of 0.1 Hz (Protocol 1) or 0.05 Hz (Protocol 2) and current amplitude was quantified over the TP1A phase log. The variation in the peak amplitude of the current was evaluated according to the Formula described below, after exposure of the cells expressing the channels, at each concentration of the different compounds:
(§6) where ITP1A,basal, and ITP1A,molecule represent the entry peaks of sodium currents into TP1A prior to exposure to the compound and in the presence of the compound, respectively.
(§7) The decrease in peak current amplitude, after exposure of the cells to the compounds, was used to calculate the percent relative blocking of the channels relative to the positive control according to the Formula below: […]
(§8) where % V and % CP represent the averages of the values of current inhibition with a vehicle (DMSO) and positive controls, respectively. The sodium currents of the positive control were considered as 100%.
(§9) where [Test] represents the concentration of the evaluated molecule, IC50 is the concentration of the compound that generates half of the maximum inhibition, N is the Hill's coefficient and % Block′ is the percentage of the sodium channel current (Nav 1.8 and Nav 1.7) inhibited at each concentration of the evaluated molecule. Data were obtained by non linear least squares regression with XL fit for Excel (Microsoft, Redmond, WA).
(§10) Compounds were tested in at least one assay to obtain the IC50 value.

[2] = target: human sodium channel Nav 1.7 (Homo sapiens (Human), UniProt Q15858); test: Automated whole-cell voltage-clamp (ScreenPatch 384P), Nav 1.7 sodium current, Protocol 2; type: cell-based; conditions: read-out: Nav1.7 IC50
Sequence of human sodium channel Nav 1.7 (Q15858 whole entry): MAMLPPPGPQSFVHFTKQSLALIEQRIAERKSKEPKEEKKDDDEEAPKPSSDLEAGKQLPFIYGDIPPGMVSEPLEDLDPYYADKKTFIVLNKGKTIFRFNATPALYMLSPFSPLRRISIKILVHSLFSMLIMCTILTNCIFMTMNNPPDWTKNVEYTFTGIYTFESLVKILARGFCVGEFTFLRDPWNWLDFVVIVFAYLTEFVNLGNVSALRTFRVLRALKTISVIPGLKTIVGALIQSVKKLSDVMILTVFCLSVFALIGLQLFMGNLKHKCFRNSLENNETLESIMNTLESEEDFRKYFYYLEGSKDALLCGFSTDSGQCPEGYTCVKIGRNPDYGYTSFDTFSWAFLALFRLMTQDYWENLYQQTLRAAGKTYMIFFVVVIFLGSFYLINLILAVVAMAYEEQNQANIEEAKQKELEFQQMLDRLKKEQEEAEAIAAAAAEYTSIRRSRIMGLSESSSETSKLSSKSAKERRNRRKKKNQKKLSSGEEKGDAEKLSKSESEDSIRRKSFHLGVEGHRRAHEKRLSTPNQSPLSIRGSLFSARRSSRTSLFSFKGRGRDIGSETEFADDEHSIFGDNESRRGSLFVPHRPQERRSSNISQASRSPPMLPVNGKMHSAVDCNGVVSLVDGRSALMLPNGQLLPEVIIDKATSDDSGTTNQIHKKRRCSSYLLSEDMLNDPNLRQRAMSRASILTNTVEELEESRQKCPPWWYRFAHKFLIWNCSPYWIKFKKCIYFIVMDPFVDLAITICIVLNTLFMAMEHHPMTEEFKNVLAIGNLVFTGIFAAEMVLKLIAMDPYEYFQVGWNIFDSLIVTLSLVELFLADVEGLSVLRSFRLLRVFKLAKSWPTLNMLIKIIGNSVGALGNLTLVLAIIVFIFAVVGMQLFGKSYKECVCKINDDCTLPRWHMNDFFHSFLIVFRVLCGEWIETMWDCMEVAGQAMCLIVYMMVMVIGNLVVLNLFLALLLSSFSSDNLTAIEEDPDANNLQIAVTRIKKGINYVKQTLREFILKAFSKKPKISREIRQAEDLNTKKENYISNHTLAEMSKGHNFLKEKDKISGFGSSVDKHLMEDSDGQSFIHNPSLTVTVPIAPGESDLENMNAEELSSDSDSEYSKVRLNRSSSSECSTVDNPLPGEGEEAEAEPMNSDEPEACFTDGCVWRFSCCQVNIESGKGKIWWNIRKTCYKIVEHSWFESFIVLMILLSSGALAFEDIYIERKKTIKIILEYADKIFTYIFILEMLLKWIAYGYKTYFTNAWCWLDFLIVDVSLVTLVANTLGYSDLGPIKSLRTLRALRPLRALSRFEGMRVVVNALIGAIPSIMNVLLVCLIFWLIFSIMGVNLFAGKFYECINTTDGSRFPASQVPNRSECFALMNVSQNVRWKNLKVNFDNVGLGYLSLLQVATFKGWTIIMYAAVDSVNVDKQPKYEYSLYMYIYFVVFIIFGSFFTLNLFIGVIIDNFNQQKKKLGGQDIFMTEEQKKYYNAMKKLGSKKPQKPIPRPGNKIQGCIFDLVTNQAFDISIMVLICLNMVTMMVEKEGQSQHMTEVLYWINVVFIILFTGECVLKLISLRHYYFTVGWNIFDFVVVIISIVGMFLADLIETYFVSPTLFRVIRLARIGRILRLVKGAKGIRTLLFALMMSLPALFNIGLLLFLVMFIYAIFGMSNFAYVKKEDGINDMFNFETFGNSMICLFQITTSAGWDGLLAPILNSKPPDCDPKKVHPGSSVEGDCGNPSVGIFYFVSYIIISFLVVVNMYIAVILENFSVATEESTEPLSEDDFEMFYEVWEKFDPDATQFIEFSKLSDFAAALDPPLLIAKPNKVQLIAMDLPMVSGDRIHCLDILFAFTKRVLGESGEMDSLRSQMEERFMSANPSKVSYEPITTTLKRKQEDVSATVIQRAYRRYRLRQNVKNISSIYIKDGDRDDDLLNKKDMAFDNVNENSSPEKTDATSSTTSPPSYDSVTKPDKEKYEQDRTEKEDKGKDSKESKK
Protocol: as §1, §2, §3, §4, §5, §6, §7, §8, §9, §10

Sequence of human sodium channel Nav 1.8 (Q9Y5Y9 whole entry): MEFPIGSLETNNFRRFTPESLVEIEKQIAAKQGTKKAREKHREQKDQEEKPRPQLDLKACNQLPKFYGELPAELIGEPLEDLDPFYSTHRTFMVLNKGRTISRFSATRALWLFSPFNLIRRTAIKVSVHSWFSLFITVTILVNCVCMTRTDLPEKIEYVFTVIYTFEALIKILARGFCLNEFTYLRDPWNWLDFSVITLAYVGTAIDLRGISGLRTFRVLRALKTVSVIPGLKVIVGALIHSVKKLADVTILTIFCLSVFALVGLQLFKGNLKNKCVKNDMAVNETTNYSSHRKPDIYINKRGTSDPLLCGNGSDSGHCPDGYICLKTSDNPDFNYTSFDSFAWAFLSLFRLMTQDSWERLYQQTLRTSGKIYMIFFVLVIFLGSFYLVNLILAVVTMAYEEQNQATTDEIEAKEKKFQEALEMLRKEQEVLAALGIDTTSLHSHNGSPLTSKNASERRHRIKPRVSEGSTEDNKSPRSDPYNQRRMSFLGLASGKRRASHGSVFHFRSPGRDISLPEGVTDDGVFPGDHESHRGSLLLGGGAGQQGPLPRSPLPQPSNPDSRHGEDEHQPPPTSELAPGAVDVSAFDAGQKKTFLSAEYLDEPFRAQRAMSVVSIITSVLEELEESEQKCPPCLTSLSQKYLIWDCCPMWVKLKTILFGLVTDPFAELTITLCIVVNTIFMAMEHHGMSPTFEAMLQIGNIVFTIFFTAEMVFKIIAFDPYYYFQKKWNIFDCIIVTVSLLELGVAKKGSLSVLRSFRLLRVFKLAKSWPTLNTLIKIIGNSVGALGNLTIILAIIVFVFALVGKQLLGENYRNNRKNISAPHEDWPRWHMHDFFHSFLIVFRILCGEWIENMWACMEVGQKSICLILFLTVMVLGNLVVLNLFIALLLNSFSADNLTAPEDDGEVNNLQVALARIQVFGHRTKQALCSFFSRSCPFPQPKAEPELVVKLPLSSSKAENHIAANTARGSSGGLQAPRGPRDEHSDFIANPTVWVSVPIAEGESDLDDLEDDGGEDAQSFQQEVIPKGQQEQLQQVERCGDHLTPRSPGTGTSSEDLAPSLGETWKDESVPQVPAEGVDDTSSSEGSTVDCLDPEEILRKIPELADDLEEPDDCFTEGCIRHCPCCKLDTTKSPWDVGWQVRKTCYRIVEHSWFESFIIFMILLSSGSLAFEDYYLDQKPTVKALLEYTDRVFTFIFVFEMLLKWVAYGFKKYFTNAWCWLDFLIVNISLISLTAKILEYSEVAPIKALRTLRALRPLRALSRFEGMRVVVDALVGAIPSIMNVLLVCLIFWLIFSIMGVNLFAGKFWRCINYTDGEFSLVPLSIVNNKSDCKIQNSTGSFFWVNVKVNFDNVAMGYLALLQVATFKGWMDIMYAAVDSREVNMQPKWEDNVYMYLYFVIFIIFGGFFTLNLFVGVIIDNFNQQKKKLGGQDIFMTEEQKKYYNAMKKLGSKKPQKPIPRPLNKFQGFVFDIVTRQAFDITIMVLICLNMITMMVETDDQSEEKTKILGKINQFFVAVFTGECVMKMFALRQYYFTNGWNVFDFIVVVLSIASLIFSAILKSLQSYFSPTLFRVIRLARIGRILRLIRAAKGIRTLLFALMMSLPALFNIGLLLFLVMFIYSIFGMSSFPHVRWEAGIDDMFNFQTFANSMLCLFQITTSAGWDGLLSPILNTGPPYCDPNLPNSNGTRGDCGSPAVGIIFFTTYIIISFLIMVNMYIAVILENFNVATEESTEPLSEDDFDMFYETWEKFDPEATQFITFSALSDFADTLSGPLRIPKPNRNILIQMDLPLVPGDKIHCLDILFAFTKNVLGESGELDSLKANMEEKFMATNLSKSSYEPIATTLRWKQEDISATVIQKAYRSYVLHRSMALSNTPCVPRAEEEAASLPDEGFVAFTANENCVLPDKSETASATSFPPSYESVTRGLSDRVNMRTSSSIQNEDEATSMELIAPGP

SMILES	IC50 [1] [nM]	IC50 [2] [nM]
COc1cc(/C=N/NC(=O)c2cncc(-c3ccc(OC4CC4)cc3)n2)cc(OC)c1 [Compound 88, (E)-6-(4-cyclopropoxyphenyl)-N′-(3,5-dimethoxybenzylidene)pyrazine-2-carbohydrazide]	42.6	70.4
COc1cc(/C=N/NC(=O)c2cncc(-c3ccc(OC4CCCCC4)cc3)n2)cc(OC)c1 [Compound 89, (E)-6-(4-(cyclohexyloxy)phenyl)-N′-(3,5-dimethoxybenzylidene)pyrazine-2-carbohydrazide]	149	212
COc1ccc(-c2nccnc2C(=O)N/N=C/c2cc(OC)cc(OC)c2)cc1 [Compound 90, (E)-N′-(3,5-dimethoxybenzylidene)-3-(4-methoxyphenyl)pyrazine-2-carbohydrazide]	> 1000	> 10000
COc1ccc(-c2cnc(C(=O)N/N=C/c3cc(OC)cc(OC)c3)cn2)cc1 [Compound 91, (E)-N′-(3,5-dimethoxybenzylidene)-5-(4-methoxyphenyl)pyrazine-2-carbohydrazide]	> 1000	> 10000
COc1cc(/C=N/NC(=O)c2cncc(-c3ccc(F)cc3)n2)cc(OC)c1 [Compound 92, (E)-N′-(3,5-dimethoxybenzylidene)-6-(4-fluorophenyl)pyrazine-2-carbohydrazide]	> 1000	> 10000
COc1cc(/C=N/NC(=O)c2cncc(-c3cccc(Cl)c3)n2)cc(OC)c1 [Compound 93, (E)-6-(3-chlorophenyl)-N′-(3,5-dimethoxybenzylidene)pyrazine-2-carbohydrazide]	> 1000	> 10000
COc1cc(/C=N/NC(=O)c2cncc(-c3cccc(F)c3)n2)cc(OC)c1 [Compound 94, (E)-N′-(3,5-dimethoxybenzylidene)-6-(3-fluorophenyl)pyrazine-2-carbohydrazide]	> 1000	> 10000
COc1cc(/C=N/NC(=O)c2cncc(-c3ccccc3Cl)n2)cc(OC)c1 [Compound 95, (E)-6-(2-chlorophenyl)-N′-(3,5-dimethoxybenzylidene)pyrazine-2-carbohydrazide]	> 1000	> 10000
COc1cc(/C=N/NC(=O)c2cncc(-c3ccc(C)cc3)n2)cc(OC)c1 [Compound 96, (E)-N′-(3,5-dimethoxybenzylidene)-6-(p-tolyl)pyrazine-2-carbohydrazide]	887	> 10000
COc1cc(/C=N/NC(=O)c2cncc(-c3ccccc3)n2)cc(OC)c1 [Compound 97, (E)-N′-(3,5-dimethoxybenzylidene)-6-phenylpyrazine-2-carbohydrazide]	394	> 10000
COc1cc(/C=N/NC(=O)c2cncc(-c3ccccc3F)n2)cc(OC)c1 [Compound 98, (E)-N′-(3,5-dimethoxybenzylidene)-6-(2-fluorophenyl)pyrazine-2-carbohydrazide]	> 1000	> 10000
COc1cc(/C=N/NC(=O)c2cncc(-c3ccccc3OC)n2)cc(OC)c1 [Compound 102, (E)-N′-(3,5-dimethoxybenzylidene)-6-(2-methoxyphenyl)pyrazine-2-carbohydrazide]	459	> 10000
COc1cc(/C=N/NC(=O)c2cncc(-c3ccncc3)n2)cc(OC)c1 [Compound 103, (E)-N′-(3,5-dimethoxybenzylidene)-6-(pyridin-4-yl)pyrazine-2-carbohydrazide]	> 1000	> 10000
COc1cc(/C=N/NC(=O)c2cncc(-c3cccnc3)n2)cc(OC)c1 [Compound 104, (E)-N′-(3,5-dimethoxybenzylidene)-6-(pyridin-3-yl)pyrazine-2-carbohydrazide]	> 1000	> 10000
CCOc1ccc(-c2cncc(C(=O)N/N=C/c3cc(F)cc(OC)c3)n2)c(OC)c1 [Compound 105, (E)-6-(4-ethoxy-2-methoxypehnyl)-N′-(3-fluoro-5-methoxybenzylidene)pyrazine-2-carbohydrazide]	33.7	44.6
CCCOc1cc(/C=N/NC(=O)c2cncc(-c3ccc(OCC)cc3OC)n2)cc(OC)c1 [Compound 106, (E)-6-(4-ethoxy-2-methoxyphenyl)-N′-(3-methoxy-5-propoxybenzylidene)pyrazine-2-carbohydrazide]	90.2	83
CCOc1ccc(-c2cncc(C(=O)N/N=C/c3cc(OC)c(F)c(OC)c3)n2)c(OC)c1 [Compound 107, (E)-6-(4-ethoxy-2-methoxyphenyl)-N′-(4-fluoro-3,5-dimethoxybenzylidene)pyrazine-2-carbohydrazide]	1000	5160
CCOc1ccc(-c2cncc(C(=O)N/N=C/c3cccc(OC)c3)n2)c(OC)c1 [Compound 108, (E)-6-(4-ethoxy-2-methoxyphenyl)-N′-(3-methoxybenzylidene)pyrazine-2-carbohydrazide]	17.7	30.8
COc1cc(/C=N/NC(=O)c2cncc(-c3ccc(OC)cc3C)n2)cc(OC)c1 [Compound 109, (E)-N′-(3,5-dimethoxybenzylidene)-6-(4-methoxy-2-methylphenyl)pyrazine-2-carbohydrazide]	149	566
CCOc1ccc(-c2cncc(C(=O)N/N=C/c3cccc(OC)c3)n2)c(Cl)c1 [Compound 111, (E)-6-(2-chloro-4-ethoxyphenyl)-N′-(3-methoxybenzylidene)pyrazine-2-carbohydrazide]	119	541
COc1cc(/C=N/NC(=O)c2cncc(-c3ccc(OC)cc3OC(F)(F)F)n2)cc(OC)c1 [Compound 112]	966	2350
CCCc1ccc(-c2cncc(C(=O)N/N=C/c3cc(OC)cc(OC)c3)n2)cc1 [Compound 113, (E)-N′-(3,5-dimethoxybenzylidene)-6-(4-propylphenyl)pyrazine-2-carbohydrazide]	433	1000
COc1cc(/C=N/NC(=O)c2cncc(-c3ccccc3N3CCOCC3)n2)cc(OC)c1 [Compound 114]	> 1000	> 10000
COc1cc(/C=N/NC(=O)c2cncc(-c3ccc(CC(C)C)cc3)n2)cc(OC)c1 [Compound 116, (E)-N′-(3,5-dimethoxybenzylidene)-6-(4-isobutylphenyl)pyrazine-2-carbohydrazide]	332	666
CCOc1ccc(-c2cncc(C(=O)N/N=C/c3cc(OC)cc(OC)c3)n2)cc1Cl [Compound 117, (E)-6-(3-chloro-4-ethoxyphenyl)-N′-(3,5-dimethoxybenzylidene)pyrazine-2-carbohydrazide]	238	737
CCSc1ccc(-c2cncc(C(=O)N/N=C/c3cc(OC)cc(OC)c3)n2)cc1 [Compound 118, (E)-N′-(3,5-dimethoxybenzylidene)-6-(4-(ethylthio)phenyl)pyrazine-2-carbohydrazide]	79.9	416
CCOc1ccc(-c2cncc(C(=O)N/N=C/c3cccc(OC)c3)n2)c(F)c1 [Compound 119, (E)-6-(4-ethoxy-2-fluorophenyl)-N′-(3-methoxybenzylidene)pyrazine-2-carbohydrazide]	128	> 10000
CCOc1ccc(-c2cncc(C(=O)N/N=C/c3cccc(OC)c3)n2)c(C(F)(F)F)c1 [Compound 120, (E)-6-(4-ethoxy-2-(trifluoromethyl)phenyl)-N′-(3-methoxybenzylidene)pyrazine-2-carbohydrazide]	133	116

Source: patent US20240335442A1 (Eurofarma Laboratórios S.A., priority 2021, published 2024)
